According to patent US20120295893A1, “COMPOSITIONS AND METHODS OF COUNTERACTING RESIDUAL SEDATIVE EFFECTS OF SLEEP/ HYPNOTIC DRUGS” (COERULEUS LTD., priority 2009, published 2012):
Converted amounts (≈) assume the structure as drawn. “Also recorded” adds a separate entry of the source. Where two headings read alike, the source gives them in different places.

How the values were obtained:
[1] = Passive transdermal paper feasibility (3M empirical model)
Method: The feasibility of transdermal delivery was evaluated for flumazenil and zolpidem. The target transdermal dose for flumazenil used in this assessment was 0.6 mg/hr.
This study addresses the feasibility of passively delivering a drug from a transdermal patch based on requirements specified for flumazenil and thereby provides evaluation of drug diffusion across the skin at a feasible rate. […] The assessment involves first qualitatively assessing the physicochemical properties and target transdermal dose of the drug by comparing them to the properties of an ideal passive transdermal drug.
This maximum limit is defined empirically by a 3M model, which can be used to estimate the largest flux and minimum patch size of the proposed drug product.
The target transdermal flux is calculated by dividing the target transdermal dose by the patch area. Using Fick's Law of Diffusion, the steady-state transdermal flux (μg/cm^2/hr) of a drug across the stratum corneum, j, is described by Equation 1: […]
where D is the diffusion coefficient of the drug in the stratum corneum (cm^2/hr), 1 is the thickness of the stratum corneum, P is the permeability coefficient (cm/hr), and Δc is the drug's concentration gradient across the stratum corneum (μg/mL), which is commonly approximated in the literature, under infinite sink conditions, by the drug's solubility in octanol (coct).
The target drug flux is estimated by dividing the target daily transdermal dose (mg/day) by the target patch size (cm^2). If the target patch size is not defined, then a value of 40 cm^2 is used. Then, using equation (1), the target permeability coefficient can be estimated by dividing the target drug flux by the drug's solubility in octanol.

[2] = tested on: sleep/hypnotic effect of zolpidem or brotizolam; experiment: Clinical study: digit symbol substitution test (DSST)
[3] = cited from earlier work
[4] = Gel electrophoresis migration in agarose gel; format: physicochemical; conditions: pH 4.5 compared with pH 5.5 and 7.2; 0.66 mg/ml, 1% gel, positive electrode
Method: The following parameters were applied in order to evaluate migration in agarose gel (1%; 3 mm thick):
Total Width: 15.5 cm; Length: 15 cm; No of Lanes: 4; No of sections: 10; Buffer solution used: TAE (Tris […], Acetic acid, EDTA); Well vol: 10 ul/well; Voltage used: 50V-100V DC; and Run Time: 1 hr.
1. 0.66 mg/ml flumazenil pH 4.5—Positive Electrode 2. 0.66 mg/ml flumazenil pH 5.5—Positive Electrode 3. 0.66 mg/ml flumazenil in tween80 pH 7.2—Positive Electrode

[5] = tested on: sleep/hypnotic effect of zolpidem or brotizolam; experiment: Clinical study: Profile Of Mood States (POMS) Brief form
[6] = tested on: sleep/hypnotic effect of zolpidem or brotizolam; experiment: Clinical study: overall response in performance tasks, flumazenil versus placebo
[7] = Clinical study: vital signs and safety assessments
[8] = tested on: sleep/hypnotic effect of zolpidem or brotizolam; experiment: Clinical study: immediate Word Recall Test (iWRT)
[9] = tested on: sleep/hypnotic effect of zolpidem or brotizolam; experiment: Clinical study: Visual Analogue Scale (sleepiness/vigilance, ability to focus, effectiveness)
[10] = cited from earlier work; remark: listed apart in the source
[11] = high dose FLUMUP 1.6 mg, 10 participants
[12] = N = 20, sublingual 0.4 mg or 1.6 mg, change from post-hypnotic baseline

For `CCOC(=O)c1ncn2c1CN(C)C(=O)c1cc(F)ccc1-2` [Flumazenil, ethyl 8-fluoro-5,6-dihydro-5-methyl-6-oxo-4H-imidazo[1,5-a] [1,4]benzodiazepine-3-carboxylate], the “log P vs. Ideal transdermal drug (1 to 3)” value [1] was “+”, the “Ionization vs. Ideal transdermal drug (Neutral)” value ([1]; Table 20A) was “+” and the “Ionization vs. Ideal transdermal drug (Neutral)” value ([1]; Table 21) was “+”. The “DSST, Δ parameter 20 min aft spray” value ([2]; N = 20, 0.4 or 1.6 mg) was 17.7 ± 2.3, the “DSST, Δ parameter 60 min aft spray” value ([2]; N = 20, 0.4 or 1.6 mg) was 22.4 ± 3.0 and the “DSST, % difference Flum vs. P” value [2, 11] was 92%. The “DSST, Δ parameter 20 min aft spray” value [2, 11] was 23.2 ± 3.4, the “DSST, Δ parameter 60 min aft spray” value [2, 11] was 30.4 ± 3.6 and the pKa ([3]; SciFinderScholar) was 1.14±0.2. For the same molecule, the Ionization ([3]; Table 20A) was “Neutral”, the “log P” value ([3]; Table 20A) was 1 and the Ionization ([3]; Table 21) was “Neutral”. The “solubility (in words)” value [3] was “sparingly soluble”, the “solubility in Propylene glycol, PEG 300 and PEG 400” value [3] was about 23 mM (≈ 6980 µg/mL) and the “solubility in pure ethanol” value ([3]; maximum) was about 33 mM (≈ 10000 µg/mL). The pKa ([3]; product information) was 1.78, the “migration in agarose gel” value [4] was “most efficient” and the “POMS- fatigue, Δ parameter 20 min aft spray” value ([5]; N = 20, 0.4 or 1.6 mg) was −3.7 ± 0.9. The “POMS- fatigue, Δ parameter 60 min aft spray” value ([5]; N = 20, 0.4 or 1.6 mg) was −5.5 ± 1.0, the “POMS-Alertness, Δ parameter 20 min aft spray” value ([5]; N = 20, 0.4 or 1.6 mg) was 3.5 ± 0.9 and the “POMS-Alertness, Δ parameter 60 min aft spray” value ([5]; N = 20, 0.4 or 1.6 mg) was 5.3 ± 1.2. For the same molecule, the “POMS- (first POMS line, r13), % difference Flum vs. P” value [5, 11] was 72%, the “POMS- (first POMS line, r13), Δ parameter 20 min aft spray” value [5, 11] was −5.8 ± 1.6 and the “POMS- (first POMS line, r13), Δ parameter 60 min aft spray” value [5, 11] was −8.2 ± 1.6. The “POMS- (second POMS line, r14), % difference Flum vs. P” value [5, 11] was 93%, the “POMS- (second POMS line, r14), Δ parameter 20 min aft spray” value [5, 11] was 4.3 ± 1.5 and the “POMS- (second POMS line, r14), Δ parameter 60 min aft spray” value [5, 11] was 7.2 ± 2.0. For the same molecule, the “difference between flumazenil and placebo, low dose” value ([6]; first 10 subjects, flumazenil 0.4 mg, brotizolam 0.25 mg or zolpidem 10 mg) was “no significant differences; also recorded: could not be better reversed”, the “response: differences between flumazenil and placebo” value ([6]; last 10 participants, flumazenil 1.6 mg, doubled hypnotic dose) was “over 30%” and the “duration of effect following administration” value ([6]; sublingual spray) was “at least 60 min”. For the same molecule, the “start of effect following administration” value ([6]; sublingual spray) was at most 20 min, the “Diastolic BP, Δ parameter 20 min aft spray” value ([7]; N = 20, 0.4 or 1.6 mg) was −0.5 ± 1.5 and the “Diastolic BP, Δ parameter 60 min aft spray” value ([7]; N = 20, 0.4 or 1.6 mg) was −2.3 ± 1.2. For the same molecule, the “Systolic BP, Δ parameter 20 min aft spray” value ([7]; N = 20, 0.4 or 1.6 mg) was −5.5 ± 2.3, the “Systolic BP, Δ parameter 60 min aft spray” value ([7]; N = 20, 0.4 or 1.6 mg) was −6.1 ± 2.7 and the “Pulse, Δ parameter 20 min aft spray” value [7, 12] was −2.9 ± 1.3. The “Pulse, Δ parameter 60 min aft spray” value [7, 12] was −3.4 ± 1.6, the “complaints of unusual sensation, pain, nausea, abdominal pain or other side effect” value ([7]; both doses of flumazenil, n=20) was “None of the participants complained” and the “Diastolic BP, % difference Flum vs. P” value [7, 11] was 70%. For the same molecule, the “Diastolic BP, Δ parameter 20 min aft spray” value [7, 11] was −2.0 ± 1.9, the “Diastolic BP, Δ parameter 60 min aft spray” value [7, 11] was −2.6 ± 1.8 and the “Pulse, % difference Flum vs. P” value [7, 11] was 8%. The “Pulse, Δ parameter 60 min aft spray” value [7, 11] was −1.2 ± 2.7, the “Systolic BP, % difference Flum vs. P” value [7, 11] was 59% and the “Systolic BP, Δ parameter 20 min aft spray” value [7, 11] was −4.7 ± 3.5. For the same molecule, the “Systolic BP, Δ parameter 60 min aft spray” value [7, 11] was −1.7 ± 4.2, the “Pulse, Δ parameter 20 min aft spray” value ([7]; high dose FLUMUP 1.6 mg, 10 participants, doubled hypnotic dose) was −0.4 ± 1.9 and the “vital signs (pulse, respiration), temperature and blood pressure” value ([7]; sublingual 0.4 mg and 1.6 mg, n=20) was “within normal values”. The “physical, neurological, mouth and buccal, cardiac and lung examination, ECG” value ([7]; sublingual 0.4 mg and 1.6 mg, with respect to placebo, n=20) was “not adversely affected”, the “iWRT, Δ parameter 20 min aft spray” value ([8]; N = 20, 0.4 or 1.6 mg) was 4.2 ± 0.8 and the “iWRT, Δ parameter 60 min aft spray” value ([8]; N = 20, 0.4 or 1.6 mg) was 5.4 ± 1.1. For the same molecule, the “iWRT, % difference Flum vs. P” value [8, 11] was 92%, the “iWRT, Δ parameter 20 min aft spray” value [8, 11] was 5.5 ± 0.9 and the “iWRT, Δ parameter 60 min aft spray” value [8, 11] was 6.1 ± 1.2. The “Effectiveness, Δ parameter 20 min aft spray” value ([9]; N = 20, 0.4 or 1.6 mg) was 2.9 ± 0.6, the “Effectiveness, Δ parameter 60 min aft spray” value ([9]; N = 20, 0.4 or 1.6 mg) was 4.5 ± 0.6 and the “Focus Ability, Δ parameter 20 min aft spray” value ([9]; N = 20, 0.4 or 1.6 mg) was 2.7 ± 0.5. The “Focus Ability, Δ parameter 60 min aft spray” value ([9]; N = 20, 0.4 or 1.6 mg) was 4.3 ± 0.6, the “Vigilance, Δ parameter 20 min aft spray” value ([9]; N = 20, 0.4 or 1.6 mg) was 3.0 ± 0.6 and the “Vigilance, Δ parameter 60 min aft spray” value ([9]; N = 20, 0.4 or 1.6 mg) was 4.7 ± 0.6. For the same molecule, the “Effectivenes, % difference Flum vs. P” value [9, 11] was 61%, the “Effectivenes, Δ parameter 20 min aft spray” value [9, 11] was 3.8 ± 0.7 and the “Effectivenes, Δ parameter 60 min aft spray” value [9, 11] was 5.5 ± 0.7. The “Focus Ability, % difference Flum vs. P” value [9, 11] was 59%, the “Focus Ability, Δ parameter 20 min aft spray” value [9, 11] was 3.7 ± 0.7 and the “Focus Ability, Δ parameter 60 min aft spray” value [9, 11] was 5.8 ± 0.8. The “Vigilance, % difference Flum vs. P” value [9, 11] was 69%, the “Vigilance, Δ parameter 20 min aft spray” value [9, 11] was 3.6 ± 0.8 and the “Vigilance, Δ parameter 60 min aft spray” value [9, 11] was 5.8 ± 0.8. For the same molecule, the effective plasma level ([10]; for IV 0.2 mg) was 5 to 20 ng/mL, the “time to peak plasma level” value ([10]; from the oral administration) was 20 to 90 min and the “plasma half life time” value ([10]; in vivo) was 7 to 15 min. For the same molecule, the protein binding ([10]; in vivo) was 40%, the volume distribution ([10]; in vivo) was 0.63 to 1.6 L/kg and the onset of action ([10]; intravenous) was “few seconds to two minutes”. For the same molecule, the “time of peak effect post administration” value ([10]; intravenous) was “six to ten minutes”, the bioavailability ([10]; oral delivery, high hepatic elimination) was 16% and the plasma level ([10]; oral dose of 200-600 mg) was 143 to 439 ng/mL.
